Experiment [1] deals with HIV strain E, mutations L100I and K103N in HIV reverse transcriptase. Nature of the experiment: cellular antiviral assay, strain E. Format: cell-based. The following applies: for pEC50 E: strain E, L100I and K103N; for EC50: Human immunodeficiency virus 1, read-out: pEC50 E (converted). An excerpt:
Strain E contains mutations L100I and K103N in HIV reverse transcriptase, […]

For experiment [2], the system named is HIV strain C, mutation L100I in HIV reverse transcriptase. Nature of the experiment: cellular antiviral assay, strain C. Format: cell-based. The conditions noted are these: for pEC50 C: strain C, L100I; for EC50: Human immunodeficiency virus 1, read-out: pEC50 C (converted). An excerpt:
Strain C contains mutation L100I in HIV reverse transcriptase, […]

Experiment [3] deals with HIV strain D, mutation Y188L in HIV reverse transcriptase. Nature of the experiment: cellular antiviral assay, strain D. The conditions noted are these: for pEC50 D: strain D, Y188L; for EC50: Human immunodeficiency virus 1, read-out: pEC50 D (converted). Format: cell-based. From the text:
Strain D contains mutation Y188L in HIV reverse transcriptase, […]

The test system of experiment [4] is HIV strain B, mutation K103N in HIV reverse transcriptase. Nature of the experiment: cellular antiviral assay, strain B. Format: cell-based. The conditions noted are these: for EC50: Human immunodeficiency virus 1, read-out: pEC50 B (converted). An excerpt:
Strain B contains mutation K103N in HIV reverse transcriptase, […]

Experiment [5] concerns wild type HIV-LAI strain (IIIB). Nature of the experiment: cellular antiviral assay, strain IIIB. Format: cell-based. The following applies: for EC50: read-out: pEC50 IIIB (converted). An excerpt: Strain IIIB is wild type HIV-LAI strain
Experiment [6] in a line: cellular antiviral assay, strain G. Format: cell-based, HIV. The conditions noted are these: Human immunodeficiency virus 1, read-out: pEC50 G (converted).
Setting [7] is: Human immunodeficiency virus 1, IIIB.

Where two headings read alike, the source gives them in different places.

This is an account of results in patent US8575342B2, “HIV inhibiting 5-heterocyclyl pyrimidines” (Tibotech Pharmaceuticals Ltd., priority 2004, dated 2013).

Take `Cc1cc(C=CC#N)cc(C)c1Nc1nc(Nc2ccc(C#N)cc2)ncc1-c1nc(-c2ccccc2)no1` (mixture of isomers) [Compound 13]: in experiment [1], the “pEC50 E” value amounted to 7. The “pEC50 C” value in experiment [2] was found to be 7.8. Moreover, the “pEC50 D” value in experiment [3] was 7. Also, the “pEC50 B” value in experiment [4] (strain B, K103N) turned out to be 7.7. Also, the “pEC50 IIIB” value in experiment [5] (strain IIIB, wild type HIV-LAI) is listed as 7.8.

As for `Cc1cc(/C=C/C#N)cc(C)c1Nc1nc(Nc2ccc(C#N)cc2)ncc1-n1cccc1` [Compound 1], the EC50 in experiment [1] was 3.98 nM; in experiment [6] it was 1580 nM; in experiment [2], 1 nM; in experiment [3], 6.31 nM; in experiment [4], 0.794 nM; in experiment [5] (setting [7]), 1 nM.

`Cc1cc(/C=C/C#N)cc(C)c1Nc1nc(Nc2ccc(C#N)cc2)ncc1-c1cccnc1` [Compound 2]: the EC50 is 12.6 nM in experiment [1]; 7940 nM in experiment [6]; 2 nM in experiment [2]; 3.98 nM in experiment [3]; 0.631 nM in experiment [4]; 0.631 nM in experiment [5] (setting [7]).

Regarding `Cc1cc(/C=C/C#N)cc(C)c1Nc1nc(Nc2ccc(C#N)cc2)ncc1-c1ccco1` [Compound 3], the EC50 is 3.16 nM in experiment [1]; 631 nM in experiment [6]; 0.631 nM in experiment [2]; 2.51 nM in experiment [3]; 0.794 nM in experiment [4]; 0.631 nM in experiment [5] (Human immunodeficiency virus 1, strain IIIB, wild type HIV-LAI).

Regarding `N#C/C=C/c1cc(F)c(Nc2nc(Nc3ccc(C#N)cc3)ncc2-n2cccc2)c(Cl)c1` [Compound 4], the EC50 is 3.16 nM in experiment [1]; 2510 nM in experiment [6]; 0.794 nM in experiment [2]; 12.6 nM in experiment [3]; 1 nM in experiment [4]; 1 nM in experiment [5] (setting [7]).

Consider `Cc1cc(/C=C/C#N)cc(C)c1Nc1nc(Nc2ccc(C#N)cc2)ncc1-c1nc(-c2ccco2)no1` [Compound 15], for which the “pEC50 E” value in experiment [1] is 4.6. Also, in experiment [2], the “pEC50 C” value is on record as 6.7. Moreover, in experiment [3], the “pEC50 D” value is recorded as 6.2. Besides, in experiment [5] (strain IIIB, wild type HIV-LAI), the “pEC50 IIIB” value was 7.6.

Consider `Cc1noc(-c2cnc(Nc3ccc(C#N)cc3)nc2Nc2c(C)cc(/C=C/C#N)cc2C)n1` [Compound 16], for which the “pEC50 E” value in experiment [1] was 7.7. Besides, in experiment [2], the “pEC50 C” value is 8.4. The “pEC50 D” value in experiment [3] was 7.8. In addition, in experiment [5] (strain IIIB, wild type HIV-LAI), the “pEC50 IIIB” value is listed as 8.3.

Take `Cc1cc(/C=C/C#N)cc(C)c1Nc1nc(Nc2ccc(C#N)cc2)ncc1-c1nc(-c2cccs2)no1` [Compound 17]: the “pEC50 E” value in experiment [1] was found to be 5.0. Further, the “pEC50 C” value in experiment [2] was found to be 6.0. The “pEC50 D” value in experiment [3] amounted to 5.7. Also, the “pEC50 IIIB” value in experiment [5] (strain IIIB, wild type HIV-LAI) was found to be 7.0.

Regarding `Cc1cc(/C=C/C#N)cc(C)c1Nc1nc(Nc2ccc(C#N)cc2)ncc1-c1ncccc1N` [Compound 20], the “pEC50 E” value in experiment [1] turned out to be 7.1. The “pEC50 IIIB” value in experiment [5] (strain IIIB, wild type HIV-LAI) came to 8.7.
